# Measured values: patent publication EP0148660A1, “Beta-carboline derivatives, process for their preparation and medicaments containing them” (Etablissement Public dit: CENTRE NATIONAL DE LA RECHERCHE …, priority 1983, dated 1985)
# How the values were obtained:
# [1] = molecular target: récepteur des benzodiazépines; assay: Displacement of 3H-flunitrazepam from its receptor in rat cortex tissue (in vitro); format: binding; details: for IC50: 3H-flunitrazépam 4 nM, cortex du Rat, 0°, 60 mn, pH 7,4
# Description: Pour déterminer l'activité pharmacologique des molécules de cette invention, leur affinité pour le récepteur des benzodiazépines a d'abord été étudiée. Cette affinité est déterminée par l'aptitude de la molécule à déplacer une benzodiazépine radioactive (le flunitrazépam tritié) de son récepteur.
# Ce pouvoir de déplacement de la molécule est indiqué par son IC50, c'est-à-dire la concentration du produit nécessaire pour déplacer 50 % des liaisons spécifiques du ^3H-flunitrazépam avec son récepteur, à partir de tissus préparés du cerveau du Rat.
# Pour ces essais in vitro, il s'agit d'incuber à 0° pour 60 mn une suspension de tissus provenant du cortex du Rat (= 10 mg de tissu par échantillon) dans un milieu tamponné (pH 7,4, 0,05 M Tris-HCl) en présence d'une concentration fixe de ^3H-flunitrazépam (= 4 nM, 89 Ci/mmole) et d'une concentration variable du produit (10^-3 à 10^-9 M). La suspension est ensuite filtrée et la radioactivité restant sur le filtre est déterminée par scintillation. L'information obtenuepermet de dessiner une courbe de déplacement contre la concentration du produit et de calculer l'IC50 du produit.
# Babouin photosensible [2] = assay: Photosensitive baboon, intermittent light stimulation (SLI); format: in vivo
# Description: Cette molécule appartient à la classe des agonistes inverses. Elle provoque des convulsions. Le modèle utilisé est le Babouin photosensible. Sur ce modèle, l'application de stimulation lumineuse intermittente (SLI) par l'intermédiaire d'une lampe stroboscopique provoque des manifestations épileptiques d'amplitude variable. Suivant l'intensité de leur réponse, les animaux sont classés de 0 à + 4.
# 2 animaux PP 86 et 88 ont été utilisés. Le 86 est + 3 au bout de 30 secondes de SLI, le 5.5.1983. L'administration de l'éthylamino-3-β-carboline (1 mg/kg) réduit cette latence à 10 secondes, 2 minutes après l'injection. lh30 après l'injection, cette latence est toujours très diminuée (20 secondes). […] Ces résultats sont très différents de ceux de la méthyl-S-carboline dont l'effet convulsivant disparait au bout de 20 minutes chez le Babouin.
# Le 88 a montré le même type de résultat. Après 15 secondes de SLI, il est + 3 le 5.5.1983. Après l'administration de 2 mg/kg de N-éthyl carboline, la SLI provoque un stade + 3 au bout de 5 secondes. […] Après 5 heures, la latence est toujours raccourcie (10 secondes).
# souris [3] = assay: Antagonism of the anticonvulsant action of diazepam (PTZ) in mice; format: in vivo; details: PTZ 70 mg/kg s.c.; diazépam 1 mg/kg s.c. 25 minutes before, carbamate 10 mg/kg 15 minutes before; 80 % of controls convulse
# Procedure: ① Absence d'effets antagonistiques sur l'action anticonvulsivante du diazépam :
# 20 souris (30 g, ♂) ont été traitées avec 70 mg/kg s.c. de PTZ. Une moitié a servi de contrôle; l'autre moitié a reçu 1 mg/kg s.c. de diazépam 25 minutes avant le PTZ et 10 mg/kg de carbamate 15 minutes avant le PTZ.
# souris [4] = assay: Antagonism of convulsions induced by méthyl β-carboline in mice; format: in vivo; details: 1 mg/kg s.c. 5 minutes before méthyl β-carboline 1 to 10 mg/kg s.c.
# Procedure: Par contre, cette molécule antagonise les effets convulsivants induits par un agoniste inverse de la méthyl-β-carboline.
# 100 souris (30 g, ♂) sont traitées par des doses croissantes de méthyl B-carboline de 1 mg à 10 mg/kg s.c. La moitié des souris a été prétraitée par 1 mg/kg de méthyl carbamate s.c. 5 minutes avant l'injection de méthyl β-carboline.
# [5] = tested on: récepteur des benzodiazépines; assay: In vivo displacement of tritiated flunitrazepam in mouse brain regions; set-up: species or system souris; details: for flunitrazépam tritié déplacé: 10 mg/kg; for DE50 (dose effective pour déplacer 50 % du flunitrazépam tritié): s.c.
# Procedure: Ceci est démontré par des tests de déplacement du flunitrazépam tritié par le méthyl β-carbamate invivo.
# 200 µCi/kg de flunitrazépam tritié sont injectées i.v. chez la souris. Après 10 minutes, une dose connue du méthyl β-carbamate (allant de 2,5 mg/kg jusqu'à 10 mg/kg) est injectée s.c. et 10 minutes plus tard, l'animal est sacrifié. Le cerveau est rapidement disséqué. Le cervelet, le cortex et l'hippocampe sont isolés et broyés séparément et ensuite filtrés. La quantité de radio-activité restant sur le filtre est inversement proportionnelle au pouvoir de déplacement du méthyl β-carbamate.
# souris [6] = assay: Blockade of diazepam-induced sedation, rotarod in mice; format: in vivo; details: 10 mg/kg s.c.; diazépam 2 mg/kg s.c.
# Procedure: ②. Blocage de la sédation induite par le diazépam :
# 20 souris (30 g, ♂) ont été entraînées sur le rotarod (bâton de 2,5 cm 0 tournant à 4 rev/mn) pendant 5 minutes. Les souris entraînées seront utilisées si, lors du test précédant l'injection, elles restent 1 minute sans tomber du bâton. Les souris reçoivent toutes 2 mg/kg s.c. de diazépam et sont testées toutes les 10 minutes. Le pourcentage de souris restant 1 minute sur le bâton est indiqué en ordonnée de la figure.
# souris [7] = assay: Convulsions induced by pentylenetetrazol (PTZ) in mice; format: in vivo; details: PTZ 70 mg/kg s.c.
# Procedure: 40 souris "Swiss", d, 30 g recoivent 70 mg/kg s.c. de PTZ. Les souris sont divisées en 4 lots : 1 lot contrôle, 1 lot reçoit 10 mg/kg s.c. de méthyl carbamate, 5 minutes avant le PTZ, 1 lot la même dose de méthyl carbamate 15 minutes avant, et le dernier lot une dose de 1 mg/kg de méthyl carbamate 15 minutes avant. 60 % à 80 % des souris présentent des convulsions dans les 4 lots sans différences statistiquement significatives entre les lots.
# souris [8] = assay: Conflict test (Skinner box), anxiolytic effect of diazepam in mice; format: in vivo
# Procedure: ③. Absence d'effet antagoniste sur les effets anxiolytiques du diazépam : • 9 souris ont été entraînées dans un test de conflit décrit par PRADO et al. (Nature 301, 64-66, 1983). En bref les animaux privés de nourriture sont soumis à des séances quotidiennes de 15 minutes dans une boîte de Skinner. Ces sessions comprennent successivement : 5 mn sans conflit (où la souris reçoit une boulette de nourriture chaque fois qu'elle appuie sur la pédale), 5 mn de conflit (où l'appui sur la pédale entraîne à la fois la délivrance d'une boulette et un choc électrique léger), 5 mn sans conflit. Les performances des souris (nombre d'appuis/mn) baissent durant les phases de conflit.
# Babouin photosensible [9] = details: comparison; cited from earlier work
structure (smiles),measurement,setting,value
"CCOC(=O)c1cc2c(cn1)[nH]c1ccccc12 [-CO2CH2CH3, ester éthyliquede l'acide β-carboline-3-carboxylique, reference compound]",IC50,[1],2 nM
"Nc1cc2c(cn1)[nH]c1ccccc12 [-NH2, amino-3-β-carboline]",IC50,[1],25000 nM
"CCNc1cc2c(cn1)[nH]c1ccccc12 [-NHCH2CH3, éthylamino-3-β-carboline]",IC50,[1],460 nM
same,persistence of the effect on latency,"Babouin photosensible [2]; animal 88, 2 mg/kg",persiste une heure
same,latence du stade + 3 sous SLI,"Babouin photosensible [2]; animal 88, 2 mg/kg (15 secondes before treatment)",5 secondes
same,latence du stade + 3 sous SLI,"Babouin photosensible [2]; animal 88, 2 mg/kg, après 5 heures",10 secondes
same,spontaneous seizure after injection,"Babouin photosensible [2]; animal PP 86, 1 mg/kg",crise épileptique tonico-clonique spontanée
same,latence du stade + 3 sous SLI,"Babouin photosensible [2]; animal PP 86, 1 mg/kg, 1h30 après l'injection",20 secondes
same,latence du stade + 3 sous SLI,"Babouin photosensible [2]; animal PP 86, 1 mg/kg, 2 minutes après l'injection (30 secondes before treatment)",10 secondes
"O=CNc1cc2c(cn1)[nH]c1ccccc12 [-NHCHO, formylamino-3-β-carboline]",IC50,[1],4700 nM
"CCOC(=O)Nc1cc2c(cn1)[nH]c1ccccc12 [-NHCO2CH2CH3, éthoxycarbonylamino-3-β-carboline]",IC50,[1],80 nM
"COC(=O)Nc1cc2c(cn1)[nH]c1ccccc12 [-NHCO2CH3, méthoxycarbonylamino-3-β-carboline]",convulsions in mice treated with diazépam + méthyl carbamate,souris [3],aucun phénomène convulsif
same,effect on convulsions induced by méthyl β-carboline,souris [4],antagonise d'une façon compétitive
same,selectivity between brain regions / receptor sub-classes,"[5]; cervelet (BZ1) versus cortex and hippocampe (BZ1 and BZ2), souris",sélectivité pour les récepteurs du cervelet
same,flunitrazépam tritié déplacé,[5]; cervelet,~100%
same,DE50 (dose effective pour déplacer 50 % du flunitrazépam tritié),"[5]; cervelet, souris",4 mg/kg
same,flunitrazépam tritié déplacé,[5]; cortex,~75%
same,DE50 (dose effective pour déplacer 50 % du flunitrazépam tritié),"[5]; cortex, souris",5 mg/kg
same,flunitrazépam tritié déplacé,[5]; hippocampe,~75%
same,DE50 (dose effective pour déplacer 50 % du flunitrazépam tritié),"[5]; hippocampe, souris",6 mg/kg
same,effect on the sedative effect of diazépam (rotarod),souris [6],antagonise l'effet sédatif du diazépam
same,IC50,[1],71 nM
same,IC50 compared with éthylamino-3-β-carboline,[1]; relative to the IC50 of éthylamino-3-β-carboline,presque dix fois plus faible
same,3H-flunitrazépam déplacé,[1]; à haute concentration,80%
same,activité agonistique sur les convulsions induites par le PTZ,souris [7],dénuée d'activité agonistique
same,effect on the anxiolytic effect of diazépam (conflict test),souris [8]; given simultaneously with diazepam 5 mg/kg s.c.,ne bloque pas cet effet anxiolytique du diazépam
"O=C(Nc1cc2c(cn1)[nH]c1ccccc12)C(F)(F)F [-NHCOCF3, trifluoroacétylamino-3-β-carboline]",IC50,[1],6300 nM
"CC(=O)Nc1cc2c(cn1)[nH]c1ccccc12 [-NHCOCH3, acétylamino-3-β-carboline]",IC50,[1],4000 nM
"CS(=O)(=O)Nc1cc2c(cn1)[nH]c1ccccc12 [-NHSO2CH3, méthylsulfonylamino-3-β-carboline]",IC50,[1],62000 nM
"CN1C(=O)CN=C(c2ccccc2F)c2cc([N+](=O)[O-])ccc21 [Flunitrazepam, reference compound]",IC50,[1],4 nM
"CN1C(=O)CN=C(c2ccccc2)c2cc(Cl)ccc21 [diazepam, reference compound]",effect on the fall of lever presses during conflict,souris [8]; 5 mg/kg s.c.,s'oppose à cette baisse des appuis
"COC(=O)c1cc2c(cn1)[nH]c1ccccc12 [méthyl-S-carboline, méthyl β-carbolyne-3-carboxylate]",time after which the convulsant effect disappears,Babouin photosensible [9],20 min
